Experimental data: patent US20250223268A1, “4-Methylsulfonylbenzamide Compound, Preparation Method, Herbicidal Composition And Use” (Jiangsu Flag Chemical Industry Co., Ltd., priority 2022, published 2025)

Columns and labels:
Assay in all cases: Greenhouse herbicidal activity assay, post-emergence
Assay type in all cases: in vivo
Conditions in all cases: Post-emergence test, rate 150 g a.i./hm^2; grade by fresh weight inhibition rate
[1] = test system: Cyperus iria
Outline: (§1)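 Foliar spray at 3-6 leaves; pot-grown in nutrient soil in growth chamber; air-dried post-spray. Read-out at 14-21 d: fresh weight inhibition, graded A (≥80% to 100%) down to E (<20%); NT = not tested.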

[2] = test system: Digitaria sanguinalis
Outline: as §1

[3] = test system: Echinochloa crusgalli
Outline: as §1

[4] = test system: Eclipta prostrata
Outline: as §1

[5] = test system: Leptochloa chinensis
Outline: as §1

| SMILES | Control efficacy grade, Cyperus iria [1] | Control efficacy grade, Digitaria sanguinalis [2] | Control efficacy grade, Echinochloa crusgalli [3] | Control efficacy grade, Eclipta prostrata [4] | Control efficacy grade, Leptochloa chinensis [5] |
| --- | --- | --- | --- | --- | --- |
| Cc1nnc(NC(=O)c2ccc(S(C)(=O)=O)c([S+]([O-])CC#N)c2Cl)o1 (racemic) [Compound 3-193] | A (Fresh weight inhibition rate≥80% to 100%) | B (Fresh weight inhibition rate≥260% to <80%) | A (Fresh weight inhibition rate≥80% to 100%) | A (Fresh weight inhibition rate≥80% to 100%) | A (Fresh weight inhibition rate≥80% to 100%) |
| CC(C)[S+]([O-])c1c(S(C)(=O)=O)ccc(C(=O)Nc2nnco2)c1Cl (racemic) [Compound 3-273] | A (Fresh weight inhibition rate≥80% to 100%) | A (Fresh weight inhibition rate≥80% to 100%) | A (Fresh weight inhibition rate≥80% to 100%) | A (Fresh weight inhibition rate≥80% to 100%) | A (Fresh weight inhibition rate≥80% to 100%) |
| CCCC[S+]([O-])c1c(S(C)(=O)=O)ccc(C(=O)Nc2nnco2)c1Cl (racemic) [Compound 3-278] | A (Fresh weight inhibition rate≥80% to 100%) | A (Fresh weight inhibition rate≥80% to 100%) | A (Fresh weight inhibition rate≥80% to 100%) | A (Fresh weight inhibition rate≥80% to 100%) | A (Fresh weight inhibition rate≥80% to 100%) |
| CCC(C)Sc1c(S(C)(=O)=O)ccc(C(=O)Nc2nnco2)c1Cl (racemic) [Compound 3-282] | A (Fresh weight inhibition rate≥80% to 100%) | B (Fresh weight inhibition rate≥260% to <80%) | A (Fresh weight inhibition rate≥80% to 100%) | A (Fresh weight inhibition rate≥80% to 100%) | A (Fresh weight inhibition rate≥80% to 100%) |
| CS(=O)(=O)c1ccc(C(=O)Nc2nnco2)c(Cl)c1[S+]([O-])CC1CC1 (racemic) [Compound 3-299] | A (Fresh weight inhibition rate≥80% to 100%) | A (Fresh weight inhibition rate≥80% to 100%) | A (Fresh weight inhibition rate≥80% to 100%) | A (Fresh weight inhibition rate≥80% to 100%) | A (Fresh weight inhibition rate≥80% to 100%) |
| CS(=O)(=O)c1ccc(C(=O)Nc2nnco2)c(Cl)c1[S+]([O-])C1CC1 (racemic) [Compound 3-304] | A (Fresh weight inhibition rate≥80% to 100%) | A (Fresh weight inhibition rate≥80% to 100%) | A (Fresh weight inhibition rate≥80% to 100%) | A (Fresh weight inhibition rate≥80% to 100%) | A (Fresh weight inhibition rate≥80% to 100%) |
| CS(=O)(=O)c1ccc(C(=O)Nc2nnco2)c(Cl)c1[S+]([O-])C1CCC1 (racemic) [Compound 3-309] | A (Fresh weight inhibition rate≥80% to 100%) | A (Fresh weight inhibition rate≥80% to 100%) | A (Fresh weight inhibition rate≥80% to 100%) | A (Fresh weight inhibition rate≥80% to 100%) | A (Fresh weight inhibition rate≥80% to 100%) |
| CS(=O)(=O)c1ccc(C(=O)Nc2nnco2)c(Cl)c1[S+]([O-])C1CCCC1 (racemic) [Compound 3-314] | A (Fresh weight inhibition rate≥80% to 100%) | A (Fresh weight inhibition rate≥80% to 100%) | A (Fresh weight inhibition rate≥80% to 100%) | A (Fresh weight inhibition rate≥80% to 100%) | A (Fresh weight inhibition rate≥80% to 100%) |
| CS(=O)(=O)c1ccc(C(=O)Nc2nnco2)c(Cl)c1[S+]([O-])C1CCCCC1 (racemic) [Compound 3-319] | A (Fresh weight inhibition rate≥80% to 100%) | A (Fresh weight inhibition rate≥80% to 100%) | A (Fresh weight inhibition rate≥80% to 100%) | A (Fresh weight inhibition rate≥80% to 100%) | A (Fresh weight inhibition rate≥80% to 100%) |
| CS(=O)(=O)c1ccc(C(=O)Nc2nnco2)c(Cl)c1[S+]([O-])CC(F)(F)F (racemic) [Compound 3-324] | A (Fresh weight inhibition rate≥80% to 100%) | A (Fresh weight inhibition rate≥80% to 100%) | A (Fresh weight inhibition rate≥80% to 100%) | A (Fresh weight inhibition rate≥80% to 100%) | A (Fresh weight inhibition rate≥80% to 100%) |
| CS(=O)(=O)c1ccc(C(=O)Nc2nnco2)c(Cl)c1[S+]([O-])CC(F)F (racemic) [Compound 3-329] | A (Fresh weight inhibition rate≥80% to 100%) | A (Fresh weight inhibition rate≥80% to 100%) | A (Fresh weight inhibition rate≥80% to 100%) | A (Fresh weight inhibition rate≥80% to 100%) | A (Fresh weight inhibition rate≥80% to 100%) |
| C=CC[S+]([O-])c1c(S(C)(=O)=O)ccc(C(=O)Nc2nnco2)c1Cl (racemic) [Compound 3-339] | A (Fresh weight inhibition rate≥80% to 100%) | A (Fresh weight inhibition rate≥80% to 100%) | A (Fresh weight inhibition rate≥80% to 100%) | A (Fresh weight inhibition rate≥80% to 100%) | A (Fresh weight inhibition rate≥80% to 100%) |
| CS(=O)(=O)c1ccc(C(=O)Nc2nnco2)c(Cl)c1[S+]([O-])CCCl (racemic) [Compound 3-379] | A (Fresh weight inhibition rate≥80% to 100%) | A (Fresh weight inhibition rate≥80% to 100%) | A (Fresh weight inhibition rate≥80% to 100%) | A (Fresh weight inhibition rate≥80% to 100%) | A (Fresh weight inhibition rate≥80% to 100%) |
| CCC[S+]([O-])c1c(S(C)(=O)=O)ccc(C(=O)Nc2nnc(CC)o2)c1Cl (racemic) [Compound 3-384] | A (Fresh weight inhibition rate≥80% to 100%) | A (Fresh weight inhibition rate≥80% to 100%) | A (Fresh weight inhibition rate≥80% to 100%) | A (Fresh weight inhibition rate≥80% to 100%) | A (Fresh weight inhibition rate≥80% to 100%) |
